We go through 6 compounds from article PMC2976052 (The Journal of steroid biochemistry and molecular biology, 2010).

Like-named read-outs stand apart in the source and are kept apart here.

Series [1] deals with T1, GFP-GRER chimera (Homo sapiens, UniProt P03372). Briefly: cell-based.
The target in series [2] is T1, GFP-GRER chimera. Conditions: ER agonist treatment ref 17; cited from earlier work.
Series [3] deals with T1, GFP-GRER chimera.
The test system of a further series is parental C127 cell line. Format: cell-based, murine. Conditions: for nuclear translocation: parental cell line; for nuclear fluorescence in parental cell line: hits retested in parental cell line.
The next series concerns 6020 cells. Briefly: Cytotoxicity measurements by image analysis.
Setting [4] is: estradiol dose response, five 384-well plates.
[5] abbreviates: staurosporine dose-response, 4 hours, 96-well.

T1 sequence (P03372 302-595, change not shown): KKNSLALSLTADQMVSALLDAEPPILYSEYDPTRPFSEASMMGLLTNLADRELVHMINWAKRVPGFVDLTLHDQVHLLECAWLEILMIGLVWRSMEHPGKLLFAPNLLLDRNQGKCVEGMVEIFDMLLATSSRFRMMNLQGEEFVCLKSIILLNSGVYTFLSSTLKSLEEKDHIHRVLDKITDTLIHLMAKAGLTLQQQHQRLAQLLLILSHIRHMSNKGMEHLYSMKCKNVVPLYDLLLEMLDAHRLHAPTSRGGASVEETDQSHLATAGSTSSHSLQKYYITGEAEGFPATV

For orientation: EC50 means the concentration at which the effect is half-maximal. A low value points to a more potent agent. As for `CCCc1c(-c2ccc(O)cc2)nn(-c2ccc(O)cc2)c1-c1ccc(O)cc1` [PPT, propyl pyrazoletriol], the EC50 at GFP-GRER chimera [1] came to 0.141 µM. Further, the “effect on transcription, ERE-driven gene reporter” value on GFP-GRER chimera [2] is reported as “induced transcription”.

For `COc1cccc2c1C(=O)c1c(O)c3c(c(O)c1C2=O)C[C@@](O)(C(=O)CO)C[C@@H]3O[C@H]1C[C@H](N)[C@H](O)[C@H](C)O1` [adriamycin], the nuclear translocation at GFP-GRER chimera [3] (6020 (assay) cell line, hit retest in quadruplicate) was found to be 97%; in the series with parental C127 cell line (hit retest in quadruplicate) it was 95%.

Take `C[C@]12CC[C@@H]3c4ccc(O)cc4CC[C@H]3[C@@H]1CC[C@@H]2O` [estradiol, 17-β estradiol]: in the series with 6020 cells (setting [4]), the cytoplasmic area result is reported as “does not decrease” and the nuclear area entry is listed as “remains unchanged”. Also, the “nuclear fluorescence in parental cell line” value in the series on parental C127 cell line is given as “did not show nuclear fluorescence”. In addition, the nuclear translocation in the series on parental C127 cell line (5 μM estradiol control) is reported as 0%.

On to `C[C@]12CC[C@@H]3c4ccc(O)cc4CC[C@H]3[C@@H]1CCC2=O` [estrone], for which, in the series on parental C127 cell line, the “nuclear fluorescence in parental cell line” value was “did not show nuclear fluorescence”.

Take `O=C(c1ccc(OCCN2CCCCC2)cc1)c1c(-c2ccc(O)cc2)sc2cc(O)ccc12` [raloxifene]: the nuclear translocation in the series on parental C127 cell line (hit retest in quadruplicate) is reported as 0%.

For the compound `CN[C@@H]1C[C@H]2O[C@@](C)([C@@H]1OC)n1c3ccccc3c3c4c(c5c6ccccc6n2c5c31)C(=O)NC4` [staurosporine], in the series on 6020 cells (setting [5]), the cytoplasmic area entry is recorded as “dose-dependent decrease in cytoplasmic area” and the nuclear area entry is listed as “dose-dependent decrease in nuclear area”. The “ROIs (cell number)” value in the series with 6020 cells (staurosporine dose-response, data not shown) is on record as “decrease in cell number with increasing staurosporine concentration”. Besides, the “nuclear translocation result of cytotoxic compound” value at GFP-GRER chimera [3] (staurosporine dose-response for 4 hours, 96-well) is “false positive nuclear translocation results”.
